Experiments:
[1] = Inhibition of Atrial Natriuretic Factor (ANF) at 10 µM in the Eurofins-Panlabs radioligand binding assay (Eurofins_assay_211000); conditions: Cavia porcellus
[2] = target: RAC-beta serine/threonine-protein kinase (Homo sapiens) (UniProt P31751); assay: AKT2 (PKB beta) Kinase screen; conditions: Compound concentration 1.0 uM
[3] = target: Bone morphogenetic protein receptor type-1A (Homo sapiens) (UniProt P36894); assay: BMPR1A (ALK3) Kinase screen; conditions: Compound concentration 1.0 uM
Chain of Bone morphogenetic protein receptor type-1A (Homo sapiens) (P36894 whole entry): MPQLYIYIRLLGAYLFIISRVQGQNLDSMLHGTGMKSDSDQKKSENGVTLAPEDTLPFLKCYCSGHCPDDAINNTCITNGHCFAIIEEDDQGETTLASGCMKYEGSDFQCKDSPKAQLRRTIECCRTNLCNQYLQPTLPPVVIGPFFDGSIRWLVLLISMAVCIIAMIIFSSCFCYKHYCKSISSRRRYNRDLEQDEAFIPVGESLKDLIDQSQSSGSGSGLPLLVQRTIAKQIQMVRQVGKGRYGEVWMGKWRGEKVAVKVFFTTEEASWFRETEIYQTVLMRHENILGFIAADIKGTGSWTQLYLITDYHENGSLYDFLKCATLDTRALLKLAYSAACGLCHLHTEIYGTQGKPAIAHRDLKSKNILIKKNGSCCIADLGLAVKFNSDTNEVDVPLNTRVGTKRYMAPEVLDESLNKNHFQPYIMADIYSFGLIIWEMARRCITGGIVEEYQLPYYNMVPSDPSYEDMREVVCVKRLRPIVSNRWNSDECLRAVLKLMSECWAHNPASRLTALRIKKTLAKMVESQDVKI

[4] = target: Tyrosine-protein kinase BTK (Homo sapiens) (UniProt Q06187); assay: BTK Kinase screen; conditions: Compound concentration 1.0 uM
[5] = target: Calcium/calmodulin-dependent protein kinase type 1 (Homo sapiens) (UniProt Q14012); assay: CAMK1 (CaMK1) Kinase screen; conditions: Compound concentration 1.0 uM
Chain of Calcium/calmodulin-dependent protein kinase type 1 (Homo sapiens) (Q14012 whole entry, looked up): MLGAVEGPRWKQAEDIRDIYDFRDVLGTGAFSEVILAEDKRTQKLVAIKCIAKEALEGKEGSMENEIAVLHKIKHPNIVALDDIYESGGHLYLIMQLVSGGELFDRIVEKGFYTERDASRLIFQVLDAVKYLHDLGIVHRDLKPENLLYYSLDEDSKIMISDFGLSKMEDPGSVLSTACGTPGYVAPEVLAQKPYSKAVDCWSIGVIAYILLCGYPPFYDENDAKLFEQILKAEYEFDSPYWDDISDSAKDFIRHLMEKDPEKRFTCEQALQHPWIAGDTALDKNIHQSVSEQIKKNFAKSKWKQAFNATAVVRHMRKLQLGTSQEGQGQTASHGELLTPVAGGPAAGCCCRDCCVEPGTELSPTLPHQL

[6] = target: Ephrin type-A receptor 5 (Homo sapiens) (UniProt P54756); assay: EPHA5 Kinase screen; conditions: Compound concentration 1.0 uM
[7] = target: Ephrin type-A receptor 7 (Homo sapiens) (UniProt Q15375); assay: EPHA7 Kinase screen; conditions: Compound concentration 1.0 uM
Chain of Ephrin type-A receptor 7 (Homo sapiens) (Q15375 28-998 limits assumed): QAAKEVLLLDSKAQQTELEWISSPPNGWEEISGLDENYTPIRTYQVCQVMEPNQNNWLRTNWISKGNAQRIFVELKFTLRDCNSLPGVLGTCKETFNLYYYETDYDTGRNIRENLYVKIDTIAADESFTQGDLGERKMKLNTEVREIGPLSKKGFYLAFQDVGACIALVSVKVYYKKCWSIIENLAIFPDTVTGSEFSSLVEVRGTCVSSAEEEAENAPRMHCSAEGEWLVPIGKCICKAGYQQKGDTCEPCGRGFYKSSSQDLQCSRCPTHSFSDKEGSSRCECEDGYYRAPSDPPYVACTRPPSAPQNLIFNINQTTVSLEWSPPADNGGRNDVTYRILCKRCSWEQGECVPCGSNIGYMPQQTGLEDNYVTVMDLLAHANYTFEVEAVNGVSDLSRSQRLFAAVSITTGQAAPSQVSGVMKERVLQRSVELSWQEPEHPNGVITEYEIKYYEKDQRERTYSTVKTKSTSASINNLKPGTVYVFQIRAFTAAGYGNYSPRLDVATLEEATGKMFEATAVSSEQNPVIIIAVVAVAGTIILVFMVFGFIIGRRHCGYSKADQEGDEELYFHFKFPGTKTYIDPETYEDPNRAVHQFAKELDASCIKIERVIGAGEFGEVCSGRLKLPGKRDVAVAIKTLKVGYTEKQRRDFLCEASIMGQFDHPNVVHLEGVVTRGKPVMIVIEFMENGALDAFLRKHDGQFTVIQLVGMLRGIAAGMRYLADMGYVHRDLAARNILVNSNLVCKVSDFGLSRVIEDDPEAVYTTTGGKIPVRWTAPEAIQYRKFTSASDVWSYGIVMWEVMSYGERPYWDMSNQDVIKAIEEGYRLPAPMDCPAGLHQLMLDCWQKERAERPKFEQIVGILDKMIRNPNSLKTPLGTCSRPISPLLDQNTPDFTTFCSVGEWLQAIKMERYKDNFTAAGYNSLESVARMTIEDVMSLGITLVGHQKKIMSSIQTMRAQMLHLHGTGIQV

[8] = test system: Fibroblast growth factor receptor 3 (Homo sapiens), P22607 [K650E]; assay: FGFR3 K650E Kinase screen; conditions: Compound concentration 1.0 uM
[9] = test system: Dual specificity mitogen-activated protein kinase kinase 6 (Homo sapiens), P52564 [S207E,T211E]; assay: MAP2K6 (MKK6) S207E T211E Kinase screen; conditions: Compound concentration 1.0 uM
Chain of Dual specificity mitogen-activated protein kinase kinase 6 (Homo sapiens), P52564 [S207E,T211E] (P52564 whole entry S207E/T211E): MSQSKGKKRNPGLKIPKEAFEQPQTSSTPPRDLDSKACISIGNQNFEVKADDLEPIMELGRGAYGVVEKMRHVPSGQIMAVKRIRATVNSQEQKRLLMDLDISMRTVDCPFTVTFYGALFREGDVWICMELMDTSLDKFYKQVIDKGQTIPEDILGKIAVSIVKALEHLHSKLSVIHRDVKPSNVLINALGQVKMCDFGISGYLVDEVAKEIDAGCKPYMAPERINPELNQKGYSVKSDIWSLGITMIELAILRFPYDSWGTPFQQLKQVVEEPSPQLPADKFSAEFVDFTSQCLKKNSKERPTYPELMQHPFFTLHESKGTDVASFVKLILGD

[10] = target: Mitogen-activated protein kinase 8 (Homo sapiens) (UniProt P45983); assay: MAPK8 (JNK1) Kinase screen; conditions: Compound concentration 1.0 uM
[11] = target: Myosin light chain kinase 2, skeletal/cardiac muscle (Homo sapiens) (UniProt Q9H1R3); assay: MLCK (MLCK2) Kinase screen; conditions: Compound concentration 1.0 uM
[12] = target: Phosphatidylinositol 4-kinase beta (Homo sapiens) (UniProt Q9UBF8); assay: PI4KB (PI4K beta) Kinase screen; conditions: Compound concentration 1.0 uM
[13] = target: Serine/threonine-protein kinase pim-2 (Homo sapiens) (UniProt Q9P1W9); assay: PIM2 Kinase screen; conditions: Compound concentration 1.0 uM
Chain of Serine/threonine-protein kinase pim-2 (Homo sapiens) (Q9P1W9 whole entry, looked up): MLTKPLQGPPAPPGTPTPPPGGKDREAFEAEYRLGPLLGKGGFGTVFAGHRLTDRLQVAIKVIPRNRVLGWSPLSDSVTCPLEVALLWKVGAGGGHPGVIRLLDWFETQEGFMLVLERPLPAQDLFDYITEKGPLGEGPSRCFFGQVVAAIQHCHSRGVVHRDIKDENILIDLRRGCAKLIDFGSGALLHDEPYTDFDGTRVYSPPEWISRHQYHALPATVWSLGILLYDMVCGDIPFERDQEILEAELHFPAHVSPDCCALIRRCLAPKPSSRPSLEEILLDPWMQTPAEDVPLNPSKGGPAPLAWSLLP

[14] = target: T1, cGMP-dependent protein kinase 1 (Homo sapiens) (UniProt Q13976); assay: PRKG1 Kinase screen; conditions: Compound concentration 1.0 uM
T1 sequence (whole entry): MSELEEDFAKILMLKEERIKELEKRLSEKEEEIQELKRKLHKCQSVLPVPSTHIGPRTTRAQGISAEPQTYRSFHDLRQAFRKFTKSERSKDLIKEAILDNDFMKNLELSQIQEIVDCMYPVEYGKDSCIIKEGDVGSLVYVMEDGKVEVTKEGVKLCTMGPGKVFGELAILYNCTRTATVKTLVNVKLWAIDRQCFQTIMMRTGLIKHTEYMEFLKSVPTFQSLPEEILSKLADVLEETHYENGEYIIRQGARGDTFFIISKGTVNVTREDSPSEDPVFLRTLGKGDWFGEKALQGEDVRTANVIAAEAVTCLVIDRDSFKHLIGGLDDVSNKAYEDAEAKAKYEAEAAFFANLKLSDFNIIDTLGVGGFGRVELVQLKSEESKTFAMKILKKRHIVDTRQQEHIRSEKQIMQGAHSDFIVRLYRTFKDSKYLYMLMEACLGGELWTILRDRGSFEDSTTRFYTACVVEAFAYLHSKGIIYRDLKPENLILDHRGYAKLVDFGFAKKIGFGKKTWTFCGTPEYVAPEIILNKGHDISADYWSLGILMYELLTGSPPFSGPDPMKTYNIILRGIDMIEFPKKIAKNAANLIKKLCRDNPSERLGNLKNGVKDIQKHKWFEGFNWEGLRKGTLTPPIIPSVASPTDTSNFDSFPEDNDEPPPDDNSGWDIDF

[15] = target: Proto-oncogene tyrosine-protein kinase Src (Homo sapiens) (UniProt P12931); assay: SRC Kinase screen; conditions: Compound concentration 1.0 uM
Chain of Proto-oncogene tyrosine-protein kinase Src (Homo sapiens) (P12931 2-536 limits assumed): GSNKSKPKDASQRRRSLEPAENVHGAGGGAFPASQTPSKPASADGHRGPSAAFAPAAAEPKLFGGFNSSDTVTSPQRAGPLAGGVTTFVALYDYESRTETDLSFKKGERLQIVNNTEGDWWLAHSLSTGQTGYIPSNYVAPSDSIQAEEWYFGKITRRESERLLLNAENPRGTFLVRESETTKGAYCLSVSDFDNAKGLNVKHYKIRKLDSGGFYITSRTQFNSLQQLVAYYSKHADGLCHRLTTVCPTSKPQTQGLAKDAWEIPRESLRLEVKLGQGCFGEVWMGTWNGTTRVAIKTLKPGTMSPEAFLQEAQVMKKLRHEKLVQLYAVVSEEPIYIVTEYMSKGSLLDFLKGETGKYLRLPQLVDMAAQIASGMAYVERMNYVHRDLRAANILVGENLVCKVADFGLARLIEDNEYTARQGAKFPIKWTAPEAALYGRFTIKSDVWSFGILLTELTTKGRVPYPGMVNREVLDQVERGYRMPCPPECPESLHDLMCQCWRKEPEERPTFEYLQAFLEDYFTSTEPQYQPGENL

[16] = target: T2, Tyrosine-protein kinase TXK (Homo sapiens) (UniProt P42681); assay: TXK Kinase screen; conditions: Compound concentration 1.0 uM
T2 sequence (whole entry): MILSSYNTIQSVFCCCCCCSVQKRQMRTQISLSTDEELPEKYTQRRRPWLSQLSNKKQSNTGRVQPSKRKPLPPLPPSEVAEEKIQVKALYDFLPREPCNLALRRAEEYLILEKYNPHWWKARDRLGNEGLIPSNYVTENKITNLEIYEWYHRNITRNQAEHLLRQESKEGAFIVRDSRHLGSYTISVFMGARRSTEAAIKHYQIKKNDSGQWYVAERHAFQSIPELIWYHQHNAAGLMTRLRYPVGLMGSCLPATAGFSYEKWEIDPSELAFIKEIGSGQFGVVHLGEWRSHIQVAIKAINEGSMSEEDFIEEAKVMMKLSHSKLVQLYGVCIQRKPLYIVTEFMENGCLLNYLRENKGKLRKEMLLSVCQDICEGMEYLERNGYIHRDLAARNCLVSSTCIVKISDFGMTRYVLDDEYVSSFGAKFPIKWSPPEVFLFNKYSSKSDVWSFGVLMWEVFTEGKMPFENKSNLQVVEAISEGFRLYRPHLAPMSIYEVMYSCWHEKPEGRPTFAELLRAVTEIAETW

Caspase-3 (Homo sapiens) = Caspase-3 (Homo sapiens) (UniProt P42574); assay: Peptidase, CASP3 (Caspase 3) Eurofins-Panlabs enzyme assay; conditions: Compound concentration 10.0 uM
Chain of Caspase-3 (Homo sapiens) (P42574 29-175 limits assumed): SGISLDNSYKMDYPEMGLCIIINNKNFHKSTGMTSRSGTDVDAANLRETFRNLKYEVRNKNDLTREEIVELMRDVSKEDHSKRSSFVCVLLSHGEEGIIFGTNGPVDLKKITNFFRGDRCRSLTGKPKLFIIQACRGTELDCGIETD
Chain of Caspase-3 (Homo sapiens) (P42574 176-277 limits assumed): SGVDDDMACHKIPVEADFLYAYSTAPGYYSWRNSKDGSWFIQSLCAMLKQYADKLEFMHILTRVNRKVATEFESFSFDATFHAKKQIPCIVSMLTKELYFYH

[17] = target: C-X-C chemokine receptor type 4 (Homo sapiens) (UniProt P61073); assay: Chemokine CXCR4 Eurofins-Panlabs radioligand binding assay; design: ligand concentration 0.03 nM; conditions: Compound concentration 10.0 uM
[18] = target: Melanin-concentrating hormone receptor 1 (Homo sapiens) (UniProt Q99705); assay: Melanin-Concentrating Hormone MCH1 (SLC1) Eurofins-Panlabs radioligand binding assay; design: ligand concentration 0.05 nM; conditions: Compound concentration 10.0 uM
Chain of Melanin-concentrating hormone receptor 1 (Homo sapiens) (Q99705 whole entry): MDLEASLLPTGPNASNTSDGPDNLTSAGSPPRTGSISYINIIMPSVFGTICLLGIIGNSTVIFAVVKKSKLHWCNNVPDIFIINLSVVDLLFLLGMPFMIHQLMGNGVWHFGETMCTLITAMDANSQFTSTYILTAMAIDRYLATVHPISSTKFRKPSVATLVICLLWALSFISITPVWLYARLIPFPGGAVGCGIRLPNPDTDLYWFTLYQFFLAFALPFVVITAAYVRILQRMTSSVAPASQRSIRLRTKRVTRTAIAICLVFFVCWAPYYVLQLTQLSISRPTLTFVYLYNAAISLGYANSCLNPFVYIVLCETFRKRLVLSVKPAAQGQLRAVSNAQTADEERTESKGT

[19] = target: High affinity choline transporter 1 (Homo sapiens) (UniProt Q9GZV3); assay: Transporter, Choline Eurofins-Panlabs radioligand binding assay; design: ligand concentration 0.75 nM; conditions: Rattus norvegicus; Compound concentration 10.0 uM
[20] = target: Histamine H2 receptor (Homo sapiens) (UniProt P25021); conditions: Compound concentration 10.0 uM
[21] = target: Sodium-dependent serotonin transporter (Homo sapiens) (UniProt P31645); conditions: Compound concentration 10.0 uM
Chain of Sodium-dependent serotonin transporter (Homo sapiens) (P31645 whole entry, looked up): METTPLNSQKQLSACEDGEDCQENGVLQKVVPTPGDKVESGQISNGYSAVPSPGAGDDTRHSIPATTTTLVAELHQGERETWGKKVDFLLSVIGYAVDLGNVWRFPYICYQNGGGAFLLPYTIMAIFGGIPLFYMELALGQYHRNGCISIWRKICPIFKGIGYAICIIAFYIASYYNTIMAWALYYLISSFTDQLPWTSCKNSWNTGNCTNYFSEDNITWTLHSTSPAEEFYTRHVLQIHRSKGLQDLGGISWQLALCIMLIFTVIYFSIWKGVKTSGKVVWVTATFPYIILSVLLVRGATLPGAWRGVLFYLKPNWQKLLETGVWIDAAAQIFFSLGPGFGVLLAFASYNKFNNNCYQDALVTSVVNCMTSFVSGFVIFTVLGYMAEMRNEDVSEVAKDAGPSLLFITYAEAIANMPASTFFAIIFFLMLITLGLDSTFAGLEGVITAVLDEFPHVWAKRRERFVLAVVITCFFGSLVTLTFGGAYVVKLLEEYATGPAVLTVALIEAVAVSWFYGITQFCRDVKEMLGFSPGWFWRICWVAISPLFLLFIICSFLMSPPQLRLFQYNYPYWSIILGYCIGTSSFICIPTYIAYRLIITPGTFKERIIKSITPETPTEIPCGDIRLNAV

[22] = target: T3, Alpha-2B adrenergic receptor (Homo sapiens) (UniProt P18089); conditions: Compound concentration 10.0 uM
T3 sequence (whole entry): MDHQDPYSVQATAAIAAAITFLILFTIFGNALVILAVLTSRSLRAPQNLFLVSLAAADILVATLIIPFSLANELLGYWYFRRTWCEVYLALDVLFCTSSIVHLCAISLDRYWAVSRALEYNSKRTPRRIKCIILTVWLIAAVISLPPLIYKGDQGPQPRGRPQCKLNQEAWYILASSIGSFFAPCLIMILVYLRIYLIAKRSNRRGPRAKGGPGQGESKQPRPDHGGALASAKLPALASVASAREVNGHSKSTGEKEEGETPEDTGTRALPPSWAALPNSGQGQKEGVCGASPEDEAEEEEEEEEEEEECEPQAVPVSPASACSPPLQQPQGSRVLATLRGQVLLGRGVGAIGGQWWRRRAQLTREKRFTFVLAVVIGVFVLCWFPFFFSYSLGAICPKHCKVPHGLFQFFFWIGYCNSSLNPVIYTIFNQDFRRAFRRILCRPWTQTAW

Chain of RAC-beta serine/threonine-protein kinase (Homo sapiens) (P31751 whole entry): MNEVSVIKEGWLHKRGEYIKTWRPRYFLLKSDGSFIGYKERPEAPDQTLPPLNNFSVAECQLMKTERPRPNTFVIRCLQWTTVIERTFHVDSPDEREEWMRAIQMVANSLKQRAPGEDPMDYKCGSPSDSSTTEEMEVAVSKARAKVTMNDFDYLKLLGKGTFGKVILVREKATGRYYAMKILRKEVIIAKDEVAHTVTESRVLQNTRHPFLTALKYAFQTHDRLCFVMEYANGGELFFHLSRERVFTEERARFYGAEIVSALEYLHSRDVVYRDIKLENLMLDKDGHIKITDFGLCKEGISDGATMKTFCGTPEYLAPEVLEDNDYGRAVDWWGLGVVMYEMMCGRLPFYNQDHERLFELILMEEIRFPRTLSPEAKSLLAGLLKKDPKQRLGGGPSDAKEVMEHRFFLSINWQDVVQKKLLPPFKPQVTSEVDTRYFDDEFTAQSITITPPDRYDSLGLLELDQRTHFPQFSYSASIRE

In the case of C[C@@H]1CN(c2cc(-c3n[nH]c4ccc(OC5(C)CC5)cc34)ncn2)C[C@H](C)O1 [MLi-2], the inhibition at 10 µM [1] is reported as -2% (not active), the inhibition [2] is reported as 5.53% and the inhibition [3] is reported as 0.759%. It also gave an inhibition [4] of 4.5%, an inhibition [5] of -4.05% and an inhibition [6] of 5.05%. For the same compound, the inhibition [7] was 8.11%, the inhibition [8] was 3.43% and the inhibition [9] was -1.97%. The inhibition [10] was -0.139%, the inhibition [11] was 1.73% and the inhibition [12] was 1.46%. For the same compound, the inhibition [13] was -1.94%, the inhibition [14] was 0.194% and the inhibition [15] was 4.97%. It also gave an inhibition [16] of 3.11%, an inhibition (Caspase-3 (Homo sapiens)) of 12% and an inhibition [17] of 3%. The inhibition [18] was 1%, the inhibition [19] was 18% and the inhibition [20] was 2%. For the same compound, the inhibition [21] was 2% and the inhibition [22] was 2%.
